Measurements as given in US20230066011A1, “PYRROLOPYRIMIDINE DERIVATIVE, AND PHARMACEUTICAL COMPOSITION FOR PREVENTING OR TREATING PROTEIN KINASE-RELATED DISEASE COMPRISING SAME AS ACTIVE INGREDIENT” (VORONOI CO., LTD., priority 2019, published 2023).

What was measured:
[1] = test system: human DYRK1A and tau; test: Inhibition of tau phosphorylation, ClariCELL Kinase Cell-Based Assay, HEK 293 cells expressing human DYRK1A and tau; settings: for inhibition at 1 µM: HEK293, read-out: % inhibition at 1 uM, tau phosphorylation, compound 1 uM; for inhibition at 0.25 µM / inhibition at 0.5 µM: HEK293, tau phosphorylation; for inhibition at 0.25 µM: compound 0.25 uM; for inhibition at 0.5 µM: compound 0.5 uM
Summary of the method: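 Cell-based service assay: HEK 293 cells transiently expressing human DYRK1A and tau were treated with compound and lysed. Released tau was plate-captured and its phosphorylation quantified by ELISA with a phospho-tau-specific antibody.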

[2] = test system: TNF-α; test: Inhibition of LPS-induced TNF-α secretion of THP-1 monocytes (ELISA); type: cell-based, human; settings: Homo sapiens, THP-1; compound 0.5 μM, LPS 500 ng/mL, 24 hours; read-out: THP-1/TNF-α (% inhib)
Summary of the method: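 THP-1 monocytes grown 16 h at 37 °C, pretreated 1 h with compound at final 0.5 μM, then stimulated with LPS at final 500 ng/mL for 24 h. IL-6 and TNF-α in culture supernatant measured by ELISA (OD 450 nm).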

[3] = test system: MDA-MB-231 cell line; test: Inhibition of proliferation of MDA-MB-231 cancer cells (Cell Titer-Glo); type: cell-based; settings: Homo sapiens, 72 hours
Summary of the method: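 2,000 cells/well, DMEM or RPMI; 11-pt 3-fold dilution, final 10.000000–0.000169 μM; 72 h. CellTiter-Glo, 10 min RT, luminescence read; GI50 fitted.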

| Structure (SMILES) | inhibition at 1 µM [1] | inhibition at 0.25 µM [1] | inhibition at 0.5 µM [1] | inhibition at 0.5 µM [2] | GI50 [3] |
| --- | --- | --- | --- | --- | --- |
| O=C(c1ccc(Nc2nc(NC3CC3)c3c(C(F)(F)F)c[nH]c3n2)c2c1CCO2)N1CCC(N2CCOCC2)CC1 [Example 434, (7-((4-(cyclopropyl-amino)5-(trifluoromethyl)-7H-pyrrolo[2,3-d]pyrimidin-2-yl)amino)-2,3-dihydrobenzo-furan-4-yl)(4-morpho-linopiperidin-1-yl)methanone] | 87.3% | 47.4% | 65.2% | 16% | – |
| CCNc1nc(Nc2ccc(C(=O)N3CCN(C4COC4)CC3)c3c2OCCO3)nc2[nH]cc(C(F)(F)F)c12 [Example 400, (8-((4-(ethylamino)-5-(trifluoromethyl)-7H-pyrrolo[2,3-d]pyrimidin-2-yl)amino)-2,3-dihydrobenzo[b] [1,4]dioxin-5-yl) (4-(oxetan-3-yl)piperazin-1-yl)methanone] | 69.4% | 22.3% | 46.5% | 1% | – |
| CCNc1nc(Nc2ccc(C(=O)N3CC[C@H](N4CCOCC4)C3)c3c2OCC3)nc2[nH]cc(C(F)(F)F)c12 [Example 475, (S)-(7-((4-(ethylamino)-5-(trifluoromethyl)-7H-pyrrolo[2,3-d]pyrimidin-2-yl)amino)-2,3-dihydrobenzo-furan-4-yl)(3-morpholino-pyrrolidin-1-yl)methanone] | 86.8% | 42.6% | 65.3% | 4.7% | – |
| O=C(c1ccc(Nc2nc(NC3CCCC3)c3c(C(F)(F)F)c[nH]c3n2)c2c1OCCO2)N1CCN(C2COC2)CC1 [Example 414, (8-((4-(cyclopentyl-amino)-5-(trifluoromethyl)-7H-pyrrolo[2,3-d]pyrimidin-2-yl)amino)-2,3-dihydrobenzo[b] [1,4]dioxin-5-yl) (4-(oxetan-3-yl)piperazin-1-yl)methanone] | – | – | – | 40.3% | 101 to 300 nM |
| COCCNc1nc(Nc2ccc(P3(=O)CCN(C4CCOCC4)CC3)cc2OC)nc2[nH]cc(C(F)(F)F)c12 [Example 444, 4-(3-methoxy-4-((4-((2-methoxyethyl)amino)-5-(trifluoromethyl)-7H-pyrrolo[2,3-d]pyrimidin-2-yl)amino)phenyl)-1-(tetrahydro-2H-pyran-4-yl)-1,4-azaphosphinane 4-oxide] | 65.6% | 21.7% | 45.7% | 14.4% | – |
| CCCNc1nc(Nc2ccc(C(=O)N3CCC(N4CCOCC4)CC3)c3c2OCC3)nc2[nH]cc(C(F)(F)F)c12 [Example 446, (4-morpholino-piperidin-1-yl)(7-((4-(propylamino)-5-(trifluoromethyl)-7H-pyrrolo[2,3-d]pyrimidin-2-yl)amino)-2,3-dihydrobenzo-furan-4-yl)methanone] | 84.9% | 25.7% | 61.1% | 22.5% | – |
| CNc1nc(Nc2cc(F)c(S(=O)(=O)N3CCC(N4CCOCC4)CC3)cc2OC)nc2[nH]cc(C(F)(F)F)c12 [Example 231, N^2-(5-fluoro-2-methoxy-4-((4-morpholinopiperidin-1-yl)sulfonyl)phenyl)-N^4-methyl-5-(trifluoromethyl)-7H-pyrrolo[2,3-d]pyrimidine-2,4-diamine] | – | – | – | – | 101 to 300 nM |
| CNc1nc(Nc2ccc(C(=O)N3CCN(C4COC4)CC3)c3c2OCCO3)nc2[nH]cc(C(F)(F)F)c12 [Example 397, (8-((4-(methylamino)-5-(trifluoromethyl)-7H-pyrrolo[2,3-d]pyrimidin-2-yl)amino)-2,3-dihydrobenzo[b] [1,4]dioxin-5-yl) (4-(oxetan-3-yl)piperazin-1-yl)methanone] | 52.8% | 12.9% | 41.1% | 5.6% | – |
| CCNc1nc(Nc2ccc(C(=O)N3CCC(N4CCOCC4)CC3)c3c2OCC3)nc2[nH]cc(C(F)(F)F)c12 [Example 438, (7-((4-(ethylamino)-5-(trifluoromethyl)-7H-pyrrolo[2,3-d]pyrimidin-2-yl)amino)-2,3-dihydrobenzo-furan-4-yl)(4-morpho-linopiperidin-1-yl)methanone] | 86.8% | 46.3% | 69.7% | 10.8% | – |
| N#Cc1c[nH]c2nc(Nc3ccc(C(=O)N4CCOCC4)c4c3OCCO4)nc(NCC3CCCC3)c12 [Example 133, 4-((cyclopentylmethyl)amino)-2-((8-(morpholine-4-carbonyl)-2,3-dihydrobenzo[b][1,4]dioxin-5-yl)amino)-7H-pyrrolo[2,3-d]pyrimidine-5-carbonitrile] | – | – | – | – | 101 to 300 nM |
| CNc1nc(Nc2ccc(C(=O)N3CCC(N4CCOCC4)CC3)c3c2OCC3)nc2[nH]cc(C(F)(F)F)c12 [Example 217, (7-((4-(methylamino)-5-(trifluoromethyl)-7H-pyrrolo[2,3-d]pyrimidin-2-yl)amino)-2,3-dihydrobenzofuran-4-yl)(4-morpholinopiperidin-1-yl)methanone] | 77.9% | 32% | 63.7% | – | – |
| COCCNc1nc(Nc2ccc(C(=O)N3CCC(N4CCOCC4)CC3)c3c2OCC3)nc2[nH]cc(C(F)(F)F)c12 [Example 443, (7-((4-((2-methoxyethyl)amino)-5-(trifluoromethyl)-7H-pyrrolo[2,3-d]pyrimidin-2-yl)amino)-2,3-dihydrobenzo-furan-4-yl)(4-morpho-linopiperidin-1-yl)methanone] | – | – | – | 10.8% | – |
| COc1cc(P2(=O)CCN(C3CCOCC3)CC2)ccc1Nc1nc(NC2CC2)c2c(C(F)(F)F)c[nH]c2n1 [Example 435, 4-(4-((4-(cyclo-propylamino)-5-(trifluoromethyl)-7H-pyrrolo[2,3-d]pyrimidin-2-yl)amino)-3-methoxyphenyl)-1-(tetrahydro-2H-pyran-4-yl)-1,4-azaphosphinane 4-oxide] | 73.4% | 22.7% | 55.5% | 6.6% | – |
| CCNc1nc(Nc2ccc(C(=O)N3CCC(N4CCOCC4)CC3)c3c2OCC3)nc2[nH]cc(C#N)c12 [Example 347, 4-(ethylamino)-2-((4-(4-morpholino-piperidine-1-carbonyl)-2,3-dihydro-benzofuran-7-yl)amino)-7H-pyrrolo[2,3-d]pyrimidine-5-carbonitrile] | 51.5% | 24.7% | 42.6% | 13.3% | – |
| CCNc1nc(Nc2ccc(C(=O)N3CCC(N4C[C@@H]5C[C@H]4CO5)CC3)c3c2OCC3)nc2[nH]cc(C(F)(F)F)c12 [Example 468] | 92.5% | 50.3% | 75.4% | 16.5% | – |
| O=C(c1ccc(Nc2nc(NC3CC3)c3c(C(F)(F)F)c[nH]c3n2)c2c1OCCO2)N1CCN(C2COC2)CC1 [Example 405, (8-((4-(cyclo-propylamino)-5-(trifluoromethyl)-7H-pyrrolo[2,3-d]pyrimidin-2-yl)amino)-2,3-dihydrobenzo[b] [1,4]dioxin-5-yl) (4-(oxetan-3-yl)piperazin-1-yl)methanone] | 70.7% | 17.5% | 44% | – | – |
| COCCNc1nc(Nc2ccc(C(=O)N3CCN(C4COC4)CC3)c3c2OCCO3)nc2[nH]cc(C(F)(F)F)c12 [Example 403, (8-((4-((2-methoxyethyl)-amino)-5-(trifluoromethyl)-7H-pyrrolo[2,3-d]pyrimidin-2-yl)amino)-2,3-dihydrobenzo[b] [1,4]dioxin-5-yl) (4-(oxetan-3-yl)piperazin-1-yl)methanone] | – | – | – | 40.4% | – |
| CCNc1nc(Nc2cc(F)c(S(=O)(=O)N3CCC(N4CCOCC4)CC3)cc2OC)nc2[nH]cc(C(F)(F)F)c12 [Example 232, N^4-ethyl-N^2-(5-fluoro-2-methoxy-4-((4-morpholinopiperidin-1-yl)sulfonyl)phenyl)-5-(trifluoromethyl)-7H-pyrrolo[2,3-d]pyrimidine-2,4-diamine] | – | – | – | – | 301 to 1000 nM |
| O=C(c1ccc(Nc2nc(NCC3CC3)c3c(C(F)(F)F)c[nH]c3n2)c2c1CCO2)N1CCC(N2CCOCC2)CC1 [Example 461, (7-((4-((cyclo-propylmeth-yl)amino)-5-(trifluoromethyl)-7H-pyrrolo[2,3-d]pyrimidin-2-yl)amino)-2,3-dihydrobenzo-furan-4-yl)(4-morpho-linopiperidin-1-yl)methanone] | 72.2% | 18.2% | 46.9% | 2.3% | – |
| CNc1nc(Nc2ccc(C(=O)N3CC[C@H](N4CCOCC4)C3)c3c2OCC3)nc2[nH]cc(C(F)(F)F)c12 [Example 236, (S)-(7-((4-(methylamino)-5-(trifluoromethyl)-7H-pyrrolo[2,3-d]pyrimidin-2-yl)amino)-2,3-dihydrobenzofuran-4-yl)(3-morpholinopyrrolidin-1-yl)methanone] | 67% | 34.1% | 59.5% | 13.6% | – |
| O=C(c1ccc(Nc2nc(NC3CCC3)c3c(C(F)(F)F)c[nH]c3n2)c2c1OCCO2)N1CCN(C2COC2)CC1 [Example 407, (8-((4-(cyclo-butylamino)-5-(trifluoromethyl)-7H-pyrrolo[2,3-d]pyrimidin-2-yl)amino)-2,3-dihydrobenzo[b] [1,4]dioxin-5-yl) (4-(oxetan-3-yl)piperazin-1-yl)methanone] | 58.6% | 20.7% | 39.4% | 5.3% | – |
